These results are taken from patent US8410152B2 (Max-Planck-Gesellschaft zur Forderung der Wissenschaften e. …, priority 2006, dated 2013).

The target of one data set is tau construct K19 (Homo sapiens, UniProt P10636). Description: Thioflavine S (ThS) assay for aggregation of tau. Format: biochemical. The protocol: Thioflavine S (ThS) Assay for aggregation of tau: 10 μM of the tau construct K19 were incubated with compounds in a concentration range from 1 nM up to 200 μM in the presence of 2.5 μM heparin in 50 mM NH4Ac buffer over night at 37° C. After addition of 20 μM ThS the signal was measured at 521 nm (emission) at an excitation wavelength of 440 nm. The results of this assay are presented in the IC50 column and DC50 column of Table 1 below.
Chain of tau construct K19 (P10636 with tags, fused parts or gaps isoform P10636-2 limits assumed): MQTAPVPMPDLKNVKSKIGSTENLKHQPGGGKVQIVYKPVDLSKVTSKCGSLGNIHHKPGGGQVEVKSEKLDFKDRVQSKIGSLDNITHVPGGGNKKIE

In the next data set the test system is uninduced N2A cells. Format: cell-based. Conditions: cell death as percent of LDH released into medium vs total LDH, compound 10 μM. The method, then:
Neurotoxicity assay: Neurotoxicity was assessed using an LDH (lactate dehydrogenase) assay kit (Roche, Mannheim, Germany) according to the manufacturer's specifications. In the viability assay the aggregation inhibitor compound was added at a final concentration of 10 μM to uninduced N2A cells. The activity of LDH was measured spectrophotometrically at 492 nm. Cell death was calculated as percent of LDH released into medium, compared to total LDH obtained after total cell lysis.
On the technique in general: LDH leaks from cells whose membrane has failed.

The next data set deals with N2a/K18ΔK280 cells. Description: Tau aggregation and inhibition assay in cells (ThS staining). The format is cell-based. To be noted: for inhibition at 10 µM: 120 h, read-out: Inhibition in cells; for Inhibition in cells (result in words: cytotoxicity): compound 10 μM. The method, then:
Selection of an N2a, Tet-On, G418-resistant cell line: N2a cells were cotransfected with both the pUHD172-1 plasmid (encoding the rtTA, obtained from H. Bujard, Heidelberg) and pEU-1 plasmid (encoding G418 resistance, a derivative of pRc/CMV, Invitrogen) (ratio 20:1; 1 μg/well of 6-well plates) using the DOTAP transfection reagent (Roche, Basel, CH). The cells were cultured in Eagle's Minimum Essential Medium (MEM) supplemented with 10% defined fetal bovine serum and subjected to G418 (600 μg/ml) and selection. The cells were fed with fresh media every 4 days for 3-4 weeks when single colonies appeared. Clones were tested for the induction level by transient transfection of pUHG 16-3 plasmid and the induction of β-galactosidase was measured.
Generation of inducible Tet-On cell lines: The DNA fragments encoding the appropriate tau constructs (K18WT, K18ΔK280, K18/ΔK280/PP) were inserted into the bidirectional vector pBI-5 between ClaI and SalI restriction sites (pBI-5 is an unpublished derivative of pBI-2, Baron et al., 1995). The pBI-5/K18-derived plasmids with pX343 (plasmid encoding the hygromycin resistance) were used for cotransfection of N2a/Tet-On, G418-resistant cells with the aid of DOTAP (20:1 plasmid ratio; 1 μg/well of 6-well plates). The cells were seeded at 4×10^5 cells per well. On the following day cells were transferred to 100-mm dishes and selected with 100 μg/ml of hygromycin and 600 μg/ml of G418. Clonal cell lines were screened for the inducible expression of K18 derivatives by measuring luciferase activity with the luciferase assay and immunofluorescence for tau protein with the polyclonal pan-tau antibody K9JA.
Induction of K18-derivatives in Tet-On N2a cells: The inducible N2a/K18-derivatives cells were cultured in MEM medium supplemented with 10% fetal calf serum, 2 mM glutamine and 0.1% nonessential amino acids. The expression of K18 constructs was induced by adding 1 μg doxycyclin (Dox) per 1 ml medium. The induction was continued for 7-11 days, the medium was changed 3 times (always complemented with doxycyclin). For tau solubility assays the cells were collected by pelleting during centrifugation at 1000×g for 5 min. The levels and solubility of tau K18/ΔK280 were determined following Greenberg and Davies (1990). The cells were homogenized (DIAX900, Heidolph, Schwabach, Germany) in 10 vol (w/v) of buffer consisting of 10 mM Tris-HCl (pH 7.4), 0.8 M NaCl, 1 mM EGTA, and 10% sucrose. The homogenate was spun for 20 min at 20000×g, and the supernatant was retained. The pellet was re-homogenized in 5 vol of homogenization buffer and re-centrifuged. Both supernatants were combined, brought to 1% N-laurylsarkosinate (w/v) and incubated for 1 hr at room temperature while shaking, followed by centrifugation at 100 000×g for 1 hr. The sarkosyl-insoluble pellets were resuspended in 50 mM Tris-HCl (pH 7.4), 0.5 ml per 1 g of starting material. The supernatant and sarkosyl-insoluble pellet samples were analyzed by Western blotting. The amount of material loaded for supernatant and sarkosyl-insoluble pellet represented about 0.5% and 15% of the total material present in the supernatant and pellet respectively (the ratio between supernatant and sarkosyl insoluble pellet was always 1:30). For quantification of tau levels in each fraction, the Western blots were probed with pan-tau antibody K9JA and analyzed by densitometry (LAS 3000 and AIDA software, Raytest, Straubenhardt, Germany).
Quantitation of tau aggregation in cells by Thioflavin S (ThS) staining: Tet-On inducible undifferentiated N2a cells were treated with 1 μg/ml doxycyclin for 5, 7 or 9 days in a culture dish. After that the cells were trypsinized and transferred to coverslips and incubated overnight. The cells on the coverslips were fixed with 4% paraformaldehyde in PBS for 15 min, then permeabilized with 80% MeOH for 6 min at −20° C., and incubated with 0.1% Thioflavin S for 5 min and washed three times in ethanol (50%). […]

Where [1] appears, read: 10 μM tau construct K19, 2.5 μM heparin, ThS fluorescence, read-out: DC50.
Setting [2] is: 10 μM tau construct K19, 2.5 μM heparin, over night at 37° C., ThS fluorescence, read-out: ID50 (the source's name).
The mark [3] stands for this setting: N2a/K18ΔK280 cells, compound 10 μM with doxycyclin, 5 days, ThS-positive cells scored.
Where [4] appears, read: 10 μM tau construct K19, 2.5 μM heparin, ThS fluorescence.

Structures are written as SMILES. Read-outs that look alike come from different tables or passages of the source.

One may read the inhibition as the share of the control response that was lost under treatment. `O=C(NNc1nc(-c2ccc(N3CCCC3)cc2)cs1)c1ccc(-c2ccccc2)cc1` [Comp. 9, N′-[4-(4-pyrrolidin-1-ylphenyl)-1,3-thiazol-2-yl]-1,1′-biphenyl-4-carbohydrazide]: on tau construct K19 (setting [1]), the DC50 came out at 1 µM. In addition, the IC50 at tau construct K19 (setting [2]) was 1.9 µM. Also, in the data set on uninduced N2A cells, the LDH is 6.2%. Further, in the data set on N2a/K18ΔK280 cells (setting [3]), the inhibition at 10 µM came to 60.5%.
`O=C(NNc1nc(-c2ccc(N3CCCC3)cc2)cs1)c1cccnc1` [Comp. 10, N′-[4-(4-pyrrolidin-1-ylphenyl)-1,3-thiazol-2-yl]nicotinohydrazide]: the DC50 on tau construct K19 (setting [1]) is 1.4 µM. For the same molecule, on tau construct K19 (setting [2]), the IC50 is 2 µM. Also, the LDH in the data set with uninduced N2A cells is 12.5%. Also, in the data set on N2a/K18ΔK280 cells (setting [3]), the inhibition at 10 µM was 62.5%.
For the molecule `O=C(NNc1nc(-c2ccc([N+](=O)[O-])cc2)cs1)c1ccc2c(c1)OCO2` [Comp. 13, N′-[4-(4-nitrophenyl)-1,3-thiazol-2-yl]-1,3-benzodioxole-5-carbohydrazide], the DC50 at tau construct K19 (setting [1]) turned out to be 0.7 µM. Also, at tau construct K19 (setting [2]), the IC50 turned out to be 3.9 µM. Moreover, in the data set with uninduced N2A cells, the LDH is given as 9.3%. In the data set on N2a/K18ΔK280 cells, the inhibition at 10 µM was determined as 66.1%.
In the case of `COc1ccc(-c2csc(NNC(=O)N3CCCCC3)n2)cc1` [Comp. 49, N′-[4-(4-methoxyphenyl)-1,3-thiazol-2-yl]piperidine-1-carbohydrazide], the DC50 on tau construct K19 (setting [1]) was more than 200 µM. Moreover, the IC50 at tau construct K19 (setting [2]) was more than 200 µM. For the same molecule, the LDH in the data set with uninduced N2A cells is −3.9%. The “Inhibition in cells (result in words: cytotoxicity)” value (from here on “Inhibition in cells”) with N2a/K18ΔK280 cells (N2a/K18ΔK280 cells, 5 days) is reported as “Cytotoxic at 5 d”.
As for `COc1cc(-c2csc(NNC(=O)c3ccc(C(F)(F)F)cc3)n2)cc(OC)c1O` [Comp. 51, N′-[4-(4-hydroxy-3,5-dimethoxyphenyl)-1,3-thiazol-2-yl]-4-(trifluoromethyl)benzohydrazide], the DC50 on tau construct K19 (setting [1]) is more than 200 µM. Moreover, the IC50 at tau construct K19 (setting [2]) came out at 189 µM. Also, the LDH in the data set on uninduced N2A cells is listed as −10.4%. The inhibition at 10 µM with N2a/K18ΔK280 cells (setting [3]) came out at 42.6%.
Take `O=C(NNc1nc2c(s1)Cc1ccccc1-2)c1cc2ccccc2[nH]1` [Comp. 52, N′-8H-indeno[1,2-d][1,3]thiazol-2-yl-1H-indole-2-carbohydrazide]: the IC50 against tau construct K19 turned out to be 49.4 µM. In addition, the DC50 at tau construct K19 (setting [4]) is 89.1 µM. In addition, the LDH in the data set on uninduced N2A cells was −9.6%. Besides, in the data set on N2a/K18ΔK280 cells, the inhibition at 10 µM turned out to be 53.2%.
The like results for `COc1cc(-c2csc(NNC(=O)c3cc4ccccc4[nH]3)n2)cc(OC)c1O` [Comp. 53, N′-[4-(4-hydroxy-3,5-dimethoxyphenyl)-1,3-thiazol-2-yl]-1H-indole-2-carbohydrazide] were, in that order, 171 µM, more than 200 µM, −7.3% and 49.9%.
`O=C(NNc1nc(C2C3CC4CC(C3)CC2C4)cs1)c1cc2ccccc2[nH]1` (centres unmarked) [Comp. 54, N′-[4-(2-adamantyl)-1,3-thiazol-2-yl]-1H-indole-2-carbohydrazide] returned an IC50 against tau construct K19 of more than 200 µM. This molecule yielded a DC50 on tau construct K19 (setting [4]) of more than 200 µM. For the same molecule, the LDH with uninduced N2A cells is reported as −2.1%. Besides, the inhibition at 10 µM in the data set with N2a/K18ΔK280 cells was determined as 56.6%.
In the case of `O=C(NNc1nc(-c2ccc(Cl)cc2)cs1)c1cc2ccccc2[nH]1` [Comp. 55, N′-[4-(4-chlorophenyl)-1,3-thiazol-2-yl]-1H-indole-2-carbohydrazide], the IC50 at tau construct K19 turned out to be 88.9 µM. At tau construct K19 (setting [4]), this molecule had a DC50 of 105 µM. Also, in the data set with uninduced N2A cells, the LDH is recorded as −1.1%. In addition, the inhibition at 10 µM with N2a/K18ΔK280 cells turned out to be 54%.
In the case of `CC(C)COc1ccc(-c2csc(NNC(=O)c3cc4ccccc4[nH]3)n2)cc1` [Comp. 56, N′-[4-(4-isobutyloxyphenyl)-1,3-thiazol-2-yl]-1H-indole-2-carbohydrazide], the IC50 against tau construct K19 stood at 111 µM. On tau construct K19 (setting [4]), the DC50 was more than 200 µM. In addition, the LDH in the data set on uninduced N2A cells was −0.6%. For the same molecule, in the data set on N2a/K18ΔK280 cells, the inhibition at 10 µM is 50.8%.
As to `N#Cc1ccc(-c2csc(NNC(=O)c3cc4ccccc4[nH]3)n2)cc1` [Comp. 57, N′-[4-(4-cyanophenyl)-1,3-thiazol-2-yl]-1H-indole-2-carbohydrazide], on tau construct K19, the IC50 was more than 200 µM. For the same molecule, on tau construct K19 (setting [4]), the DC50 is more than 200 µM. Also, the LDH in the data set on uninduced N2A cells came out at 2.7%. The inhibition at 10 µM in the data set with N2a/K18ΔK280 cells was 49.3%.
For the molecule `O=C(NNc1nc(-c2ccc(-c3ccccc3)cc2)cs1)c1cc2ccccc2[nH]1` [Comp. 58, N′-[4-(1,1′-biphenyl-4-yl)-1,3-thiazol-2-yl]-1H-indole-2-carbohydrazide], at tau construct K19, the IC50 is 98.9 µM. The DC50 on tau construct K19 (setting [4]) was more than 200 µM. Besides, in the data set with uninduced N2A cells, the LDH amounted to 54.5%. Also, the “Inhibition in cells” value in the data set on N2a/K18ΔK280 cells (N2a/K18ΔK280 cells, 5 days) is recorded as “Cytotoxic at 5 d”.
Take `O=C(NNc1nc(-c2ccc3ccccc3c2)cs1)c1cc2ccccc2[nH]1` [Comp. 59, N′-[4-(2-naphthyl)-1,3-thiazol-2-yl]-1H-indole-2-carbohydrazide]: the IC50 against tau construct K19 came to 130 µM. Besides, the DC50 on tau construct K19 (setting [4]) is 138 µM. Further, the LDH with uninduced N2A cells stood at 1.9%. In addition, the “Inhibition in cells” value in the data set with N2a/K18ΔK280 cells (N2a/K18ΔK280 cells, 5 days) was “Cytotoxic at 5 d”.
The molecule `O=C(NNc1nc(-c2ccccc2Br)cs1)c1cc2ccccc2[nH]1` [Comp. 60, N′-[4-(2-bromophenyl)-1,3-thiazol-2-yl]-1H-indole-2-carbohydrazide] showed an IC50 against tau construct K19 of more than 200 µM. At tau construct K19 (setting [4]), this molecule yielded a DC50 of more than 200 µM. Besides, the LDH in the data set with uninduced N2A cells is given as 0.1%. Also, the inhibition at 10 µM in the data set with N2a/K18ΔK280 cells worked out at 41.5%.
On to `Cc1sc(NNC(=O)c2ccc(-c3ccccc3)cc2)nc1-c1ccc([N+](=O)[O-])cc1` [Comp. 61, N′-[5-methyl-4-(4-nitrophenyl)-1,3-thiazol-2-yl]-1,1′-biphenyl-4-carbohydrazide], for which, at tau construct K19 (setting [1]), the DC50 worked out at 13.6 µM. In addition, the IC50 on tau construct K19 (setting [2]) worked out at 9.8 µM. The LDH in the data set on uninduced N2A cells amounted to 16.6%. The inhibition at 10 µM in the data set with N2a/K18ΔK280 cells (setting [3]) was 62.6%.
For the molecule `Cc1nc(NNC(=O)c2ccc3[nH]cnc3c2)sc1-c1ccc(Br)cc1` [Comp. 62, N′-[5-(4-bromophenyl)-4-methyl-1,3-thiazol-2-yl]-1H-benzimidazole-5-carbohydrazide], the DC50 on tau construct K19 (setting [1]) was 38.1 µM. In addition, the IC50 on tau construct K19 (setting [2]) was 33.5 µM. For the same molecule, the LDH in the data set with uninduced N2A cells is −2.8%. Moreover, the inhibition at 10 µM in the data set with N2a/K18ΔK280 cells was determined as 68.3%.
As for `Cc1nc(NNC(=O)c2ccc(F)cc2)sc1-c1ccc(Br)cc1` [Comp. 63, N′-[5-(4-bromophenyl)-4-methyl-1,3-thiazol-2-yl]-4-fluorobenzohydrazide], the DC50 on tau construct K19 (setting [1]) worked out at 15.9 µM. Moreover, the IC50 on tau construct K19 (setting [2]) came to 13.6 µM. Besides, the LDH in the data set with uninduced N2A cells is listed as 1.2%. For the same molecule, the inhibition at 10 µM with N2a/K18ΔK280 cells came out at 50%.
